Assays:
gastrocnemius muscle = assay: Streptozotocin diabetes model of muscle atrophy: FoxO3 mRNA and miR-182 in gastrocnemius muscle; assay type: in vivo; details: rats, STZ 125 mg/kg single intravenous injection, third day; for decrease of miR-182 in muscle: vs controls
Protocol: (§1) FoxO3 mRNA (Panels A and C) and miR-182 (Panels B and D) were measured in either cells treated with Dex (1 μM) for 6 h (Panels A and B) or in gastrocnemius muscles of either control or streptozotocin-injected, acutely diabetic rats (Panels C and D). Results are reported as the mean±SEM of the fold-change of the respective control values.
Whether there is a similar relationship between FoxO3 and miR-182 expression was investigated in vivo in skeletal muscle during atrophy. STZ-induced diabetes mellitus causes muscle atrophy and responses (e.g., increased atrogin-1 expression) that are consistent with FoxO3 activation. Therefore, FoxO3 expression was evaluated during STZ-induced diabetes mellitus by measuring FoxO3 mRNA. FoxO3 mRNA was increased 75% (FIG. 2D) whereas the level of miR-182 was decreased 43% (P<0.05) (FIG. 2D).
Male rats (˜150 gm) received a single intravenous injection of STZ (125 mg/kg) in citrate buffer. STZ-injected and control rats were pair-fed and on the third day after injection the animals were anesthetized, and the gastrocnemius muscle was harvested. Food was withheld during the night before the tissue harvest to avoid the confounding influences of variable food intake on skeletal muscle protein metabolism. All animal studies were approved by the Emory Institutional Animal Care and Use Committee (IACUC).

C2C12 myotubes [1] = assay: miR-182 in media exosomes released from C2C12 myotubes after Dex; assay type: cell-based, Mouse; details: Dex 6 h
Protocol: Fresh differentiation media containing 100 nM Dex or vehicle was added to myotubes for 6 h. Afterwards, RNA was prepared from isolated media exosomes and miR-182, along U6 controls, was measured.
One mechanism by which microRNAs are protected from degradation is through incorporation into protective exosomes. This has led some to propose that the relative abundance patterns of microRNAs in various tissues and fluids as well as exosomes and other microvesicles are a reflection of underlying pathophysiological processes. Dex administration enhances the exosomal packaging and release of two atrophy-related microRNAs (miR-1 and miR-23a) into the media of C2C12 myotubes. This led us to test whether miR-182 is incorporated into exosomes that are released from myotubes. The amount of miR-182 in exosomes, normalized to U6 small nuclear RNA, is increased 95% in exosomes following Dex treatment to myotubes (FIG. 4). […]
To quantify exosomal microRNA, exosome-associated RNA, including microRNA, was isolated using a urine exosome RNA isolation kit (Norgen Biotek, Thorolod, ON, Canada) according to the manufacturer's instructions for isolating RNA from extracellular fluids. Subsequent quantitative PCR (qPCR) was performed.

C2C12 myotubes [2] = assay: FoxO3 mRNA and intracellular miR-182 in C2C12 myotubes treated with Dex to induce atrophy; assay type: cell-based, Mouse; details: Dex 1 μM, 6 hours
Protocol: as §1
To test this, C2C12 myotubes were treated with dexamethasone (Dex), a synthetic glucocorticoid, which induces atrophy, in part, by increasing FoxO3 activity in C2C12 myotubes. […] Simultaneously, the amount of intracellular miR-182 decreased 44% (FIG. 2B).
Mouse C2C12 myoblasts (American Type Culture Collection, Manassas, Va.) were cultured in growth media [Dulbecco modified Eagle medium plus 10% fetal bovine serum (Atlanta Biologicals, Lawrenceville, Ga.) and 1% penicillin and streptomycin (Invitrogen, Carlsbad, Calif.)] and studied between passage 3 and 7. Myoblasts were grown to ˜95% confluence in a 6-well plate and then differentiated into myotubes by replacing growth media with differentiation media (DMEM supplemented with 2% fetal bovine serum and 1% PS) for 3 days. In some experiments, myotubes were treated with 1 μM Dex for 6 hours before being harvested.

Compound	decrease of miR-182 in muscle (gastrocnemius muscle; P<0.05)	decrease of miR-182 in muscle (gastrocnemius muscle; P<0.05, listed as STZ)	increase of FoxO3 mRNA in muscle (gastrocnemius muscle; vs pair-fed controls)	increase of miR-182 in exosomes, normalized to U6 small nuclear RNA (C2C12 myotubes [1])	decrease of intracellular miR-182 (C2C12 myotubes [2])	increase of FoxO3 mRNA (C2C12 myotubes [2])	decrease of intracellular miR-182 (C2C12 myotubes [2]; listed as dexamethasone)
CN(N=O)C(=O)N[C@H]1C(O)O[C@H](CO)[C@@H](O)[C@@H]1O (mixture of isomers) [streptozotocin]	44%	43%	75%				
C[C@@H]1C[C@H]2[C@@H]3CCC4=CC(=O)C=C[C@]4(C)[C@@]3(F)[C@@H](O)C[C@]2(C)[C@@]1(O)C(=O)CO [Dexamethasone, dexamethasone]				95%	63%	133%	44%
